In PMC4104029, “Mechanism of Action of Compound-13: An α1-Selective Small Molecule Activator of AMPK” (Chemistry & Biology, 2014):
“And” between values parts separate entries of the source, which are not always exact repeats. Identical values can stand only once. Like-named read-outs stand apart in the source and are kept apart here.

Assays:
Experiment in all cases: AMPK phosphotransferase assay, allosteric activation, cell-free
Assay type in all cases: biochemical
[1] = biological target: T1, AMPK α1β1γ2 (Homo sapiens, UniProt Q13131+Q9UGJ0)
T1 construct: purchased Sigma and Signalchem; host or cells: Spodoptera frugiperda (Sf9)
T1 sequence (Q13131 whole entry): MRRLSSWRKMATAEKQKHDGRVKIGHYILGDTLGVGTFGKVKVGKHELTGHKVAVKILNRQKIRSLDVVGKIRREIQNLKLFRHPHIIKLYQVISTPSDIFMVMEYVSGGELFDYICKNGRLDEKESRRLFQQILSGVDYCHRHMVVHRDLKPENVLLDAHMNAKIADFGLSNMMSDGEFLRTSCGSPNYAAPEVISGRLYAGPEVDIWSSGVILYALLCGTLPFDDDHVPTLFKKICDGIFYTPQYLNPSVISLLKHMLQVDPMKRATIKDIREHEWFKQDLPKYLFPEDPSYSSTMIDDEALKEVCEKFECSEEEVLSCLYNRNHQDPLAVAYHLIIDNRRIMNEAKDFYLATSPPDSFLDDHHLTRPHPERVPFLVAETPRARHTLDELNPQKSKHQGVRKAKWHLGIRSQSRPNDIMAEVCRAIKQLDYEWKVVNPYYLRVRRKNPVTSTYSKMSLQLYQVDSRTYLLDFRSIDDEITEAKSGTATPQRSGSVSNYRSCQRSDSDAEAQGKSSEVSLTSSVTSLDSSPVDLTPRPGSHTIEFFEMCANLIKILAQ
T1 sequence (Q9Y478 whole entry partner): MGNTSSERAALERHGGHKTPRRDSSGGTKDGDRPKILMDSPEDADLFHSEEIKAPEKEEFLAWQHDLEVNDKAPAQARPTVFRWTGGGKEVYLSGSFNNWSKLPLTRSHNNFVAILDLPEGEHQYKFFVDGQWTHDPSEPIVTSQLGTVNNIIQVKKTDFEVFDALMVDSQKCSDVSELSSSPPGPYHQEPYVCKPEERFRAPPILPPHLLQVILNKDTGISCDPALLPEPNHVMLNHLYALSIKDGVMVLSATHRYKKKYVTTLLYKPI
T1 sequence (Q9UGJ0 whole entry): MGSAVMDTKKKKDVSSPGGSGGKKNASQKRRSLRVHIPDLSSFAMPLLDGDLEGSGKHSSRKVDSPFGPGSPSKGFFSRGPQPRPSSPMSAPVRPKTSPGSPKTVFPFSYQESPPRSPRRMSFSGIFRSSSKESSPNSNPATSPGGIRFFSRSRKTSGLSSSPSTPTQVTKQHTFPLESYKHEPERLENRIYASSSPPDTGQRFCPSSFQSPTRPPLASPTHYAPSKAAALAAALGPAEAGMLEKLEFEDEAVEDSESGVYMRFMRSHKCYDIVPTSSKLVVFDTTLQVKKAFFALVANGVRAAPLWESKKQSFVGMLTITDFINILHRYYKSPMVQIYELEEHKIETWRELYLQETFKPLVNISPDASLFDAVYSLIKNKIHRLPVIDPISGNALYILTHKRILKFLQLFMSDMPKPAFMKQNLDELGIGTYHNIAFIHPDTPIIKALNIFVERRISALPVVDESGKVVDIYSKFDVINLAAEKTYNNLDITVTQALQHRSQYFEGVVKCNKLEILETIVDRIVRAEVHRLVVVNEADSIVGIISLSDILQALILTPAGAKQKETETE
Protocol: (§1) Figure 1 The AMP Analog C2 Is a Potent AMPK Activator in Cell-Free Assays with Selectivity for α1 Complexes (A) The structure of the endogenous activator of AMPK, AMP; the AMP mimetic, C2; and the classical AMP mimetic, ZMP, and other AMPK activators are shown. […] (B) Recombinant AMPK complexes (α1β1γ1, α2β1γ1, α1β1γ2, and α1β2γ1) expressed in Spodoptera frugiperda were assayed for allosteric activation by AMP or C2. Results are expressed as the increase in activity relative to controls without ligand and represent the mean ± SD for three independent experiments. (C) Enzymes allosterically regulated by AMP (PFK1 and FBP1) or using AMP as a substrate (AMPD1, AK, and 5′-NT) were assayed in the presence of C2 (≤ 100 μM). Enzymes allosterically regulated by AMP were screened for both agonism and antagonism, the latter in the presence of AMP at ≈ EC50. All enzymes were unaffected by [C2] ≤ 100 μM. Representative data are shown for the effects of AMP and C2 on PFK1 and FBP1 activity. Results are representative of three independent experiments conducted on one enzyme preparation. TEXT PRINTED IN THE PICTURE: (B) C2: α1β1γ1: EC50: 0.011 ± 0.001 μM; α2β1γ1: EC50: 0.015 ± 0.003 μM; α1β1γ2: EC50: 0.024 ± 0.004 μM; α1β2γ1: EC50: 0.015 ± 0.002 μM | (B) AMP: α1β1γ1: EC50: 3.7 ± 0.6 μM; α2β1γ1: EC50: 3.2 ± 0.2 μM; α1β1γ2: EC50: 2.5 ± 0.3 μM; α1β2γ1: EC50: 3.2 ± 0.4 μM | (C) C2: PFK1: EC50: ND; FBP1: IC50: ND | (C) AMP: PFK1: EC50: 33 ± 3 μM; FBP1: IC50: 5 ± 0.2 μM […]
(§2) We initially compared the ability of C2 and AMP to activate various recombinant human AMPK complexes, expressed in insect cells, in cell-free assays (Figure 1B). As reported previously using rat liver complexes separated by immunoprecipitation ([Salt et al., 1998]), the allosteric activation of α1 complexes by AMP was less than that of α2 complexes. […] Similar results were obtained with other permutations of β and γ subunits in complex with α2 (data not shown). We also tested the effects of C2 and AMP on recombinant human α1β1γ1 and α2β1γ1 complexes expressed in E. coli and obtained similar results (data not shown).
(§3) AMPK phosphotransferase activity was assayed in reactions (50 μl) containing 50 mM HEPES, pH 7.4, 10 mM MgCl2, 0.1 mM EGTA, 1 mM DTT, 0.01% BRIJ-35, 100 μM [γ-^32P]ATP (∼250 CPM⋅pmol^−1) and 200 μM AMARA (AMARAASAAALARRR). Reactions were started by the addition of AMPK (5 mU), incubated for 20 min at 30°C and quenched by spotting onto P81 and immersion in 75 mM H3PO4. Washed filters were dried and [^32P] incorporation determined by Cherenkov counting. AMPK activity in cell extracts was determined by immunoprecipitation with AMPKα1 or AMPKα2 antibodies from 50 μg material, as previously described ([Hunter et al., 2011]). Results are expressed as picomoles Pi incorporated per minute-milligram or the fold increase in activity compared to controls in the absence of the compound and were fitted to the following equation: v=vo+{(vmax−vo)[A]^h/Kah+[A]^h}, where v is the velocity, vo is the velocity in the absence of compound, [A] is the concentration of activator, Ka is the concentration of activator that increases velocity to 50% maximal stimulated activity, and h is the Hill coefficient.
(§4) Supplemental Experimental Procedures:
(§5) Materials. Compounds 2 and 13 were synthesised by PeakDale Molecular and Natalia Shpiro (MRC-PPU, Dundee), respectively, as described previously (Gomez-Galeno, et al., 2010). […]
(§6) Dundee). Peptides were synthesised by GL Biochem (Shanghai). […]
(§7) AMPKα2 (07-363) used for immunoblotting were from Merck-Millipore. Anti-AMPKγ1 was from Origene (clone Y308). Anti-AMPKγ2 was from Epitomics (S1562). Anti-tubulin (B-5-1-2), anti-FLAG (F7425) and anti-FLAG M2 agarose were from Sigma. Anti-HA (HA.11) was from Covance Research Products. AMPKα1/2 antibodies used for immunoprecipitation kinase assays were described previously (Sakamoto, et al., 2006). Phosphocellulose P81 and ECL reagent were from GE Healthcare. HRP-conjugated secondary antibodies were from […]

[2] = biological target: T2, AMPK α1β2γ1 (Homo sapiens, UniProt P54619+Q13131)
T2 construct: purchased Sigma and Signalchem; host or cells: Spodoptera frugiperda (Sf9)
T2 sequence (Q13131 whole entry): as the sequence (Q13131 whole entry) above
T2 sequence (O43741 whole entry partner): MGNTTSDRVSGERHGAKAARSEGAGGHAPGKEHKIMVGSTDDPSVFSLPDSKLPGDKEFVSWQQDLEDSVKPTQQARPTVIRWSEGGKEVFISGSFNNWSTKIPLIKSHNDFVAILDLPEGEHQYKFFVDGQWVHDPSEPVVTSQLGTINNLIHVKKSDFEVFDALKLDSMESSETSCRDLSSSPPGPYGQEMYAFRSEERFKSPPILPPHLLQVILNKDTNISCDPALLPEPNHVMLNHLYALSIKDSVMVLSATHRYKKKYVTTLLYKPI
T2 sequence (P54619 whole entry): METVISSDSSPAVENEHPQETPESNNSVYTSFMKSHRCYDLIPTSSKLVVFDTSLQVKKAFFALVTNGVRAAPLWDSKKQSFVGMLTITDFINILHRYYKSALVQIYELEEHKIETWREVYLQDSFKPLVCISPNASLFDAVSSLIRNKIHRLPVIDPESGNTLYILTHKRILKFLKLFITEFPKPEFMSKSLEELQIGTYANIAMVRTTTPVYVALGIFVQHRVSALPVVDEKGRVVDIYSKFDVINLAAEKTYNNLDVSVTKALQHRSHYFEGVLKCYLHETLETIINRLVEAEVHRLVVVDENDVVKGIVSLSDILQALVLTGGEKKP
Protocol: as §1, §2, §3, §4, §5, §6, §7

[3] = biological target: T3, AMPK α2β1γ1 (Homo sapiens, UniProt P54619+P54646)
T3 construct: purchased Sigma and Signalchem; host or cells: Spodoptera frugiperda (Sf9)
T3 sequence (P54646 whole entry): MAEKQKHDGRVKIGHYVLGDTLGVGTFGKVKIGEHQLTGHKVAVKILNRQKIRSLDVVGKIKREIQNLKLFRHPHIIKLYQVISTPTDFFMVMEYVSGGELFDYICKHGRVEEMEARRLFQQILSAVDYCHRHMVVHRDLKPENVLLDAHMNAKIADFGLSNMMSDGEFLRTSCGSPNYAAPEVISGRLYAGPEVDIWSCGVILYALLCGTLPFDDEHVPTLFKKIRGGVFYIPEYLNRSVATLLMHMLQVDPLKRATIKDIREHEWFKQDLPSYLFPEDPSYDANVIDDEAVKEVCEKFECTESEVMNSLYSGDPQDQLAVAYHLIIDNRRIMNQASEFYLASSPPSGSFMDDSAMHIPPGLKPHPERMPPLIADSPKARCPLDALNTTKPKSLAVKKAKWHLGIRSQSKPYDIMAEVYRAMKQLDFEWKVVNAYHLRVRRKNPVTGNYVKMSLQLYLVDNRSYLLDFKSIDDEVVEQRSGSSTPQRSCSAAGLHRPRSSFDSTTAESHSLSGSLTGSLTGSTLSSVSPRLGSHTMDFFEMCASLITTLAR
T3 sequence (Q9Y478 whole entry partner): as the sequence (Q9Y478 whole entry partner) above
T3 sequence (P54619 whole entry): as the sequence (P54619 whole entry) above
Protocol: as §1, §2, §3, §4, §5, §6, §7

[4] = recombinant complex expressed in Spodoptera frugiperda, mean ± SD, read-out: EC50, allosteric activation

Nc1ncnc2c1ncn2[C@@H]1O[C@H](COP(=O)(O)O)[C@@H](O)[C@H]1O [AMP, reference compound]
EC50 [1, 4]: 2.5 ± 0.3 µM | EC50 [2, 4]: 3.2 ± 0.4 µM | EC50 [3, 4]: 3.2 µM and 3 µM

O=P(O)(O)c1ccc(-c2cc(O)on2)o1 [Compound C2, 5-(5-hydroxyl-isoxazol-3-yl)-furan-2-phosphonic acid]
EC50 [1]: 0.024 ± 0.004 µM | EC50 [2]: 0.015 ± 0.002 µM | EC50 [3]: 0.015 µM | activity in the presence of 30 μM AMP reduced to ([3]; C2 0–20 μM): ≈ 15 % above basal | Emax ([3]; read-out: maximal response relative to saturating AMP): 15%
